Measurements: article PMC10620772, “Design, synthesis, and biological evaluation of new pyrimidine-5-carbonitrile derivatives as novel anti-cancer, dual EGFR^WT/COX-2 inhibitors with docking studies” (RSC Advances, 2023)
Several values for one entry are separate records, joined by “and”; a condition that tells them apart may be missing. Identical values can stand only once. Entries after “also recorded” stand apart in the source; their conditions may differ.

How the values were obtained:
A549/ATCC = assay: NCI60 antitumor screening; type: cell-based, human
OVCAR-5 = assay: NCI60 antitumor screening; type: cell-based, human
BT-549 = assay: NCI60 antitumor screening; type: cell-based, human
HT29 = assay: NCI60 antitumor screening; type: cell-based, human
UACC-62 = assay: NCI60 antitumor screening; type: cell-based, human
U251 = assay: NCI60 antitumor screening; type: cell-based, human
RXF 393 = assay: NCI60 antitumor screening; type: cell-based, human
M14 = assay: NCI60 antitumor screening; type: cell-based, human
NCI60 cell lines panel = assay: NCI60 antitumor screening, full panel; type: cell-based, human
Summary of the method: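 Percent growth inhibition (GI%) was recorded for each of the NCI60 lines, spanning leukaemia, lung, colon, CNS, melanoma, ovarian, renal, prostate and breast cancers, after exposure to compounds at one concentration, 10 μM.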

SW-620 = assay: NCI60 antitumor screening; type: cell-based, human
CAKI-1 = assay: NCI60 antitumor screening; type: cell-based, human
A498 = assay: NCI60 antitumor screening; type: cell-based, human
LOX IMVI = assay: NCI60 antitumor screening; type: cell-based, human
T-47D = assay: NCI60 antitumor screening; type: cell-based, human
MDA-MB-231/ATCC = assay: NCI60 antitumor screening; type: cell-based, human; conditions: Homo sapiens; 10 μM single dose; MDA-MB-231/ATCC (breast cancer); read-out: growth inhibition percent (GI%)
SR = assay: NCI60 antitumor screening; type: cell-based, human
MDA-MB-435 = assay: NCI60 antitumor screening; type: cell-based, human
SF-295 = assay: NCI60 antitumor screening; type: cell-based, human
OVCAR-3 = assay: NCI60 antitumor screening; type: cell-based, human
EKVX = assay: NCI60 antitumor screening; type: cell-based, human
KM12 = assay: NCI60 antitumor screening; type: cell-based, human
HCT-15 = assay: NCI60 antitumor screening; type: cell-based, human
EGFR^WT = molecular target: T1, EGFR^WT (Homo sapiens, UniProt P00533); assay: In vitro EGFR^WT inhibitory assay (BPS Bioscience kinase kit); type: biochemical; conditions: means ± SD of three experiments
T1 construct: purchased BPS Bioscience 40 321
T1 sequence (P00533 25-1210): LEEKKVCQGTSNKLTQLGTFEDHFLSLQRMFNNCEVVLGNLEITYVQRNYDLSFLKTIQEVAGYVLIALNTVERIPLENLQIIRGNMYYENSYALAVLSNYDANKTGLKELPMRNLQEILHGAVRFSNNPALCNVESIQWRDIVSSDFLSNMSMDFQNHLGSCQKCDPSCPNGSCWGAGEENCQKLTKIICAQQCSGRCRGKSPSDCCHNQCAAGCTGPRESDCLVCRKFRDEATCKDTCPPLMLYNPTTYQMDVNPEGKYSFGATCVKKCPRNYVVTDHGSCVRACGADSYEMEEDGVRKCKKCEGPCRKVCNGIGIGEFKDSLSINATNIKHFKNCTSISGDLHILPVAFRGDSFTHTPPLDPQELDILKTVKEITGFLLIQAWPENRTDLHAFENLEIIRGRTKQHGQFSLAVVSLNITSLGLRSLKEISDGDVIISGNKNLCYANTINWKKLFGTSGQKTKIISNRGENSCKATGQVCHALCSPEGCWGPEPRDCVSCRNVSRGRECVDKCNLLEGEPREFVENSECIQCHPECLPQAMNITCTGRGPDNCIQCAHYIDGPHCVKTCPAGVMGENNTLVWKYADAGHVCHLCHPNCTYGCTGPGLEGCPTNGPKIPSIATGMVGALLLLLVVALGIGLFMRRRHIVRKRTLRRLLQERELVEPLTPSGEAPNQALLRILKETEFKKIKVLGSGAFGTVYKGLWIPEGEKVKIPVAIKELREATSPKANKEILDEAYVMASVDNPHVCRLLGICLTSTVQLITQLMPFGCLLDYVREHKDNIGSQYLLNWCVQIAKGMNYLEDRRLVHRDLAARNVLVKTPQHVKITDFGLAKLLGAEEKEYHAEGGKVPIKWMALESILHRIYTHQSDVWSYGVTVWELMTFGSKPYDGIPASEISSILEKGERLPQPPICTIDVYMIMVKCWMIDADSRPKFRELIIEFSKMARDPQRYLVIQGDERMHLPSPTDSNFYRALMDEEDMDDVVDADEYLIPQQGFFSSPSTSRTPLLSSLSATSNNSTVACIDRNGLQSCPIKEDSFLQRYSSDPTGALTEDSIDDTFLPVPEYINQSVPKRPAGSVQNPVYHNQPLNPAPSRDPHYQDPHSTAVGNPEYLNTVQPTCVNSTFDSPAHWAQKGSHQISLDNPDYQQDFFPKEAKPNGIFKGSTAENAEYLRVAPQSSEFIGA
Description: (1) Prepare the mixture of N wells × (kinase assay buffer 6 μl, ATP1 μl, PTK substrate 1 μl and water 17 μl). to every well pipette the 25 μl. […] On the contrary, add 5 μl of inhibitor buffer to control and plank wells. (3) Pipette 20 μl of EGFR^WT to test and control wells, on the blank wells pipette 20 μl kinase assay buffer. Then incubate at R.T for 40 min. (4) end the incubation after 40 min by adding to every well 50 μl of Kinase-Glo Max reagent, and incubate 15 min. By measuring the ATP quantity after kinase reaction, the activity of kinase could be detected. (5) use microplate reader to measure the luminescence.[51]

TK-10 = assay: NCI60 antitumor screening; type: cell-based, human
NCI-H226 = assay: NCI60 antitumor screening; type: cell-based, human
IGROV1 = assay: NCI60 antitumor screening; type: cell-based, human
HL-60(TB) = assay: NCI60 antitumor screening; type: cell-based, human

N#Cc1c(-c2ccc(F)cc2)nc(SCc2ccc(F)cc2)nc1N1CCNCC1 [4f, 2-((4-Fluorobenzyl)thio)-4-(4-fluorophenyl)-6-(piperazin-1-yl) pyrimidine-5-carbonitrile]
GI50 (A549/ATCC; Homo sapiens, A549, five-dose): 11.5 µM
LC50 (concentration killing 50% of cells) (A549/ATCC; Homo sapiens, A549, five-dose): 54.2 µM
inhibition at 10 µM (A549/ATCC; Homo sapiens, 10 μM single dose, A549/ATCC (non-small cell lung cancer), read-out: growth inhibition percent (GI%)): > 100%
TGI (A549/ATCC; five-dose): 25.00 µM
GI% (OVCAR-5; 10 μM one-dose): 99.16%
GI50 (OVCAR-5; Homo sapiens, OVCAR-5, five-dose): 14.5 µM
CC50 (OVCAR-5; Homo sapiens, OVCAR-5, five-dose, read-out: LC50 (the source's name)): 53.9 µM
inhibition at 10 µM (OVCAR-5; Homo sapiens, 10 μM single dose, OVCAR-5 (ovarian cancer), read-out: growth inhibition percent (GI%)): 99.2%
TGI (OVCAR-5; five-dose): 28.00 µM
GI50 (BT-549; Homo sapiens, BT-549, five-dose): 10.7 µM
CC50 (BT-549; Homo sapiens, BT-549, five-dose, read-out: LC50 (the source's name)): 49.4 µM
inhibition at 10 µM (BT-549; Homo sapiens, 10 μM single dose, BT-549 (breast cancer), read-out: growth inhibition percent (GI%)): 17.3%
TGI (BT-549; five-dose): 23.00 µM
inhibition at 10 µM (HT29; Homo sapiens, HT-29, 10 μM single dose, HT29 (colon cancer), read-out: growth inhibition percent (GI%)): > 100%
GI50 (HT29; Homo sapiens, HT-29, five-dose): 4.87 µM
CC50 (HT29; Homo sapiens, HT-29, five-dose, read-out: LC50 (the source's name)): 51.7 µM
TGI (HT29; five-dose): 17.30 µM
GI50 (UACC-62; Homo sapiens, UACC-62, five-dose): 15.9 µM
CC50 (UACC-62; Homo sapiens, UACC-62, five-dose, read-out: LC50 (the source's name)): 56.2 µM
inhibition at 10 µM (UACC-62; Homo sapiens, 10 μM single dose, UACC-62 (melanoma), read-out: growth inhibition percent (GI%)): > 100%
TGI (UACC-62; five-dose): 29.90 µM
inhibition at 10 µM (U251; Homo sapiens, U-251, 10 μM single dose, U251 (CNS cancer), read-out: growth inhibition percent (GI%)): > 100%
GI50 (U251; Homo sapiens, U-251, five-dose): 10.3 µM
CC50 (U251; Homo sapiens, U-251, five-dose, read-out: LC50 (the source's name)): 59.1 µM
TGI (U251; five-dose): 24.70 µM
CC50 (RXF 393; Homo sapiens, RXF 393, five-dose, read-out: LC50 (the source's name)): 51.5 µM
inhibition at 10 µM (RXF 393; Homo sapiens, 10 μM single dose, RXF 393 (renal cancer), read-out: growth inhibition percent (GI%)): > 100%
TGI (RXF 393; five-dose): 21.40 µM
GI50 (M14; Homo sapiens, M14, five-dose): 13.6 µM
CC50 (M14; Homo sapiens, M14, five-dose, read-out: LC50 (the source's name)): 52.9 µM
inhibition at 10 µM (M14; Homo sapiens, 10 μM single dose, M14 (melanoma), read-out: growth inhibition percent (GI%)): > 100%
TGI (M14; five-dose): 26.80 µM
One-dose activity over the NCI60 panel (NCI60 cell lines panel; 10 μM): lethal to most of cell lines; also recorded: Lethal to almost all NCI60 cell lines
inhibition at 10 µM (NCI60 cell lines panel; Homo sapiens, 10 μM single dose, mean over NCI60 cell lines, read-out: Mean growth inhibition percent (GI%)): > 100%
GI50 (NCI60 cell lines panel; Homo sapiens, average of all cell lines, read-out: Full panel MG-MID (GI50)): 13.5 µM
Full panel MG-MID (TGI) (NCI60 cell lines panel; average of all cell lines): 26.45 μM and 26.45 ^e μM
GI50 (SW-620; Homo sapiens, SW-620, five-dose): 5.97 µM
CC50 (SW-620; Homo sapiens, SW-620, five-dose, read-out: LC50 (the source's name)): 48.7 µM
inhibition at 10 µM (SW-620; Homo sapiens, 10 μM single dose, SW-620 (colon cancer), read-out: growth inhibition percent (GI%)): > 100%
TGI (SW-620; five-dose): 19.30 µM
GI50 (CAKI-1; Homo sapiens, CAKI-1, five-dose): 15.3 µM
CC50 (CAKI-1; Homo sapiens, CAKI-1, five-dose, read-out: LC50 (the source's name)): 54.6 µM
inhibition at 10 µM (CAKI-1; Homo sapiens, 10 μM single dose, CAKI-1 (renal cancer), read-out: growth inhibition percent (GI%)): > 100%
TGI (CAKI-1; five-dose): 29.00 µM
GI50 (A498; Homo sapiens, A498, five-dose): 15.3 µM
LC50 (A498; Homo sapiens, A498, five-dose): 58.2 µM
inhibition at 10 µM (A498; Homo sapiens, 10 μM single dose, A498 (renal cancer), read-out: growth inhibition percent (GI%)): < 10%
TGI (A498; five-dose): 29.80 µM
GI50 (LOX IMVI; Homo sapiens, LOX IMVI, five-dose): 2.28 µM
CC50 (LOX IMVI; Homo sapiens, LOX IMVI, five-dose, read-out: LC50 (the source's name)): 22.7 µM
inhibition at 10 µM (LOX IMVI; Homo sapiens, 10 μM single dose, LOX IMVI (melanoma), read-out: growth inhibition percent (GI%)): > 100%
TGI (LOX IMVI; five-dose): 5.69 µM
inhibition at 10 µM (T-47D; Homo sapiens, T47D, 10 μM single dose, T-47D (breast cancer), read-out: growth inhibition percent (GI%)): > 100%
GI50 (T-47D; Homo sapiens, T47D, five-dose): 13.8 µM
CC50 (T-47D; Homo sapiens, T47D, five-dose, read-out: LC50 (the source's name)): 67.2 µM
TGI (T-47D; five-dose): 30.40 µM
inhibition at 10 µM (MDA-MB-231/ATCC): > 100%
GI50 (SR; Homo sapiens, SR, five-dose): 2.18 µM
CC50 (SR; Homo sapiens, SR, five-dose, read-out: LC50 (the source's name)): 17.5 µM
inhibition at 10 µM (SR; Homo sapiens, 10 μM single dose, SR (leukaemia), read-out: growth inhibition percent (GI%)): > 100%
TGI (SR; five-dose): 5.07 µM
GI50 (MDA-MB-435; Homo sapiens, MDA-MB-435, five-dose): 16.8 µM
CC50 (MDA-MB-435; Homo sapiens, MDA-MB-435, five-dose, read-out: LC50 (the source's name)): 58.4 µM
inhibition at 10 µM (MDA-MB-435; Homo sapiens, 10 μM single dose, MDA-MB-435 (melanoma), read-out: growth inhibition percent (GI%)): > 100%
TGI (MDA-MB-435; five-dose): 31.30 µM
GI50 (SF-295; Homo sapiens, SF-295, five-dose): 16.6 µM
CC50 (SF-295; Homo sapiens, SF-295, five-dose, read-out: LC50 (the source's name)): 57.5 µM
inhibition at 10 µM (SF-295; Homo sapiens, 10 μM single dose, SF-295 (CNS cancer), read-out: growth inhibition percent (GI%)): > 100%
TGI (SF-295; five-dose): 30.90 µM
GI50 (OVCAR-3; Homo sapiens, OVCAR-3, five-dose): 15.5 µM
CC50 (OVCAR-3; Homo sapiens, OVCAR-3, five-dose, read-out: LC50 (the source's name)): 61.2 µM
inhibition at 10 µM (OVCAR-3; Homo sapiens, 10 μM single dose, OVCAR-3 (ovarian cancer), read-out: growth inhibition percent (GI%)): > 100%
TGI (OVCAR-3; five-dose): 30.80 µM
GI% (EKVX; 10 μM one-dose): 98.71%
GI50 (EKVX; Homo sapiens, EKVX, five-dose): 13.1 µM
LC50 (EKVX; Homo sapiens, EKVX, five-dose): 52.9 µM
inhibition at 10 µM (EKVX; Homo sapiens, 10 μM single dose, EKVX (non-small cell lung cancer), read-out: growth inhibition percent (GI%)): 98.7%
TGI (EKVX; five-dose): 26.40 µM
GI50 (KM12; Homo sapiens, KM12, five-dose): 18 µM
CC50 (KM12; Homo sapiens, KM12, five-dose, read-out: LC50 (the source's name)): 63 µM
inhibition at 10 µM (KM12; Homo sapiens, 10 μM single dose, KM12 (colon cancer), read-out: growth inhibition percent (GI%)): > 100%
TGI (KM12; five-dose): 33.60 µM
GI50 (HCT-15; Homo sapiens, HCT-15, five-dose): 11.7 µM
CC50 (HCT-15; Homo sapiens, HCT-15, five-dose, read-out: LC50 (the source's name)): 51.8 µM
inhibition at 10 µM (HCT-15; Homo sapiens, 10 μM single dose, HCT-15 (colon cancer), read-out: growth inhibition percent (GI%)): > 100%
TGI (HCT-15; five-dose): 24.60 µM
IC50 (EGFR^WT): 0.23 µM and 0.235 µM
GI50 (TK-10; Homo sapiens, TK-10, five-dose): 15 µM
LC50 (TK-10; Homo sapiens, TK-10, five-dose): 58.8 µM
inhibition at 10 µM (TK-10; Homo sapiens, 10 μM single dose, TK-10 (renal cancer), read-out: growth inhibition percent (GI%)): > 100%
TGI (TK-10; five-dose): 29.70 µM
GI50 (NCI-H226; Homo sapiens, NCI-H226, five-dose): 15.9 µM
CC50 (NCI-H226; Homo sapiens, NCI-H226, five-dose, read-out: LC50 (the source's name)): 80.3 µM
inhibition at 10 µM (NCI-H226; Homo sapiens, 10 μM single dose, NCI-H226 (non-small cell lung cancer), read-out: growth inhibition percent (GI%)): 23.1%
TGI (NCI-H226; five-dose): 35.70 µM
inhibition at 10 µM (IGROV1; Homo sapiens, IGROV-1, 10 μM single dose, IGROV1 (ovarian cancer), read-out: growth inhibition percent (GI%)): > 100%
GI50 (IGROV1; Homo sapiens, IGROV-1, five-dose): 15.6 µM
CC50 (IGROV1; Homo sapiens, IGROV-1, five-dose, read-out: LC50 (the source's name)): 56.8 µM
TGI (IGROV1; five-dose): 29.80 µM
GI50 (HL-60(TB); Homo sapiens, HL-60, five-dose): 7.66 µM
CC50 (HL-60(TB); Homo sapiens, HL-60, five-dose, read-out: LC50 (the source's name)): 63.8 µM
inhibition at 10 µM (HL-60(TB); Homo sapiens, 10 μM single dose, HL-60(TB) (leukaemia), read-out: growth inhibition percent (GI%)): > 100%
TGI (HL-60(TB); five-dose): 24.00 µM
